# Data as given in patent US11078168B2, “Substituted N-hydroxyamidinoheterocycles as modulators of indoleamine 2,3-dioxygenase” (PHENEX DISCOVERY VERWALTUNGS-GMBH, priority 2016, dated 2021).
# Target: T1, Indoleamine 2,3-dioxygenase (Homo sapiens, UniProt P14902)
# T1 construct: endogenous in cells; host or cells: SKOV-3 (ATCC HTB-77), stimulated with interferon gamma
# Assay: SKOV-3 cellular Indoleamine 2,3-dioxygenase assay
# Settings: SKOV-3 cells, 50 ng/ml Interferon gamma, 100 μM L-Tryptophan, 24 hours, N-Formylkynurenin fluorescence detection; read-out: cell based activity
# Protocol: SKOV-3 cellular Indoleamine 2,3-dioxygenase assay
# SKOV-3 cells were obtained from the American Type Culture Collection (ATCC® HTB-77™) and maintained in McCoy's medium (Pan Biotech) supplemented with 10% fetal bovine serum and 1% Penicilin/Streptomycin. Cells were kept at 37° C. in a humidified incubator with 5% CO2. For assay preparation, cells were seeded at a density of 2*10^5/ml into black clear bottom 96 well plates in 100 μl medium/well supplemented with 50 ng/ml Interferon gamma (eBioscience, Thermo Fisher Scientific). After cells fully adhered to the plate, dilution series of compounds were added in medium containing additional L-Tryptophan to a final L-Tryptophan concentration of 100 μM. The cells were incubated for 24 hours. Detection of produced N-Formylkynurenin was performed by addition of 3-Methylpiperidine to a final concentration of 200 mM. The plates were sealed and heated to 65° C. for 20 minutes in a water bath. After cooling the fluorescence of each well was recorded with a Victor™X4 (PerkinElmer) plate reader at an emission wavelength of 535 nm and excitation at 405 nm (Tomek et al.; Anal Bioanal Chem (2013) 405:2515-2524., Tomek et al.; Biochim Biophys Acta. 2015 September; 1850(9):1772-80).
# T1 sequence (P14902 whole entry): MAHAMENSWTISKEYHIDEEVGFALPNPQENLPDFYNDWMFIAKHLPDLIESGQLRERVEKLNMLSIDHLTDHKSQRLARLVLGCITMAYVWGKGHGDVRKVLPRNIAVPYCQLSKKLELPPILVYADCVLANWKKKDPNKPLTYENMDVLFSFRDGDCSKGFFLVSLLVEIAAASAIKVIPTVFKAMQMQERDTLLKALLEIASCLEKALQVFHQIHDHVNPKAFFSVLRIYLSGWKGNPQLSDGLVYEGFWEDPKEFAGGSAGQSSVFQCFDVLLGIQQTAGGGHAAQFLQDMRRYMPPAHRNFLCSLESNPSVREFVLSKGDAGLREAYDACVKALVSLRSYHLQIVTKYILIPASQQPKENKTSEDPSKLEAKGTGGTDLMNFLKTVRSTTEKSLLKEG
row,SMILES,IC50 [µM]
1,CC(C)(C)OC(=O)NC1(C(=O)NCCOc2nonc2C(=NO)Nc2ccc(F)c(Cl)c2)COC1 [9/16],0.1 to 1
2,CNC(=O)C(=O)NCCOc1nonc1C(=NO)Nc1ccc(F)c(Cl)c1 [9/17],0.1 to 1
3,NS(=O)(=O)CC(=O)NCCOc1nonc1C(=NO)Nc1cccc(C(F)(F)F)c1 [9/20],0.1 to 1
4,CN(CCOc1nonc1C(=NO)Nc1ccc(F)c(Cl)c1)C(=O)CS(N)(=O)=O [9/22],0.1 to 1
5,"CS(=O)(=O)CCS(=O)(=O)NCCSc1nonc1C(=NO)Nc1ccc(F)c(C(F)F)c1 [100/1, N-(3-(Difluoromethyl)-4-fluorophenyl)-N′-hydroxy-4-((2-((2-(methylsulfonyl)ethyl)sulfonamido)ethyl)thio)-1,2,5-oxadiazole-3-carboximidamide]",< 0.1
6,"NS(=O)(=O)NCCSc1nonc1C(=NO)Nc1ccc(F)c(Cl)c1 [101/1, N-(3-Chloro-4-fluorophenyl)-N′-hydroxy-4-((2-(sulfamoylamino)ethyl)thio)-1,2,5-oxadiazole-3-carboximidamide]",< 0.1
7,CC(C)(O)C(O)C(=O)NCCSc1nonc1C(=NO)Nc1ccc(F)c(C(F)F)c1 (stereo not drawn) [107/1],< 0.1
8,NS(=O)(=O)CC(=O)NCCSc1nonc1/C(=N/O)Nc1cccc(Br)c1 [107/4],< 0.1
9,NS(=O)(=O)CC(=O)NCCSc1nonc1/C(=N/O)Nc1cccc(Cl)c1 [107/5],< 0.1
10,O=C(NCCSc1nonc1C(=NO)Nc1ccc(F)c(C(F)F)c1)C1(O)CCC1 [107/7],< 0.1
11,O=C(NCCSc1nonc1/C(=N/O)Nc1ccc(F)c(C(F)F)c1)C1CS(=O)(=O)C1 [107/8],< 0.1
12,CC(C)(O)CC(=O)NCCSc1nonc1/C(=N/O)Nc1ccc(F)c(C(F)F)c1 [107/16],< 0.1
13,O=C(CCCC[C@@H]1SC[C@@H]2NC(=O)N[C@@H]21)NCCSc1nonc1C(=NO)Nc1ccc(F)c(Cl)c1 [107/18],< 0.1

# Second part, the compound after the results:
row,IC50 [µM],SMILES
1,> 1,CC(C)(C)OC(=O)NC1(C(=O)NCCOc2nonc2C(=NO)Nc2ccc(F)c(Cl)c2)CC1(F)F (stereo not drawn) [9/18]
2,0.1 to 1,CN(C)C(=O)C(=O)NCCOc1nonc1C(=NO)Nc1ccc(F)c(Cl)c1 [9/19]
3,< 0.1,NS(=O)(=O)CC(=O)NCCOc1nonc1C(=NO)Nc1ccc(F)c(C(F)(F)F)c1 [9/21]
4,0.1 to 1,"CN1CCN(CCOc2nonc2C(=NO)Nc2ccc(F)c(Cl)c2)CC1 [10/1, N-(3-Chloro-4-fluorophenyl)-N′-hydroxy-4-(2-(4-methylpiperazin-1-yl)ethoxy)-1,2,5-oxadiazole-3-carboximidamide]"
5,0.1 to 1,"CS(=O)(=O)CCCOc1nonc1C(=NO)Nc1ccc(F)c(Cl)c1 [20/1, N-(3-Chloro-4-fluorophenyl)-N′-hydroxy-4-(3-(methylsulfonyl)propoxy)-1,2,5-oxadiazole-3-carboximidamide]"
6,< 0.1,Nc1c(NCCSc2nonc2C(=NO)Nc2cccc(C(F)F)c2)c(=O)c1=O [102/1]
7,0.1 to 1,Nc1c(NCCSc2nsnc2C(=NO)Nc2ccc(F)c(Cl)c2)c(=O)c1=O [102/2]
8,< 0.1,NS(=O)(=O)CC(=O)NCCSc1nonc1C(=NO)Nc1cc(F)cc(C(F)F)c1 [107/2]
9,< 0.1,N#Cc1cc(N/C(=N\O)c2nonc2SCCNC(=O)CS(N)(=O)=O)ccc1F [107/3]
10,< 0.1,CC(C)(O)C(=O)NCCSc1nonc1C(=NO)Nc1ccc(F)c(C(F)F)c1 [107/6]
11,< 0.1,Cc1cccc(NC(=NO)c2nonc2SCCNC(=O)CS(N)(=O)=O)c1 [107/10]
12,< 0.1,NS(=O)(=O)CC(=O)NCCSc1nonc1C(=NO)Nc1cccc(CF)c1 [107/11]
13,< 0.1,N#Cc1cccc(N/C(=N\O)c2nonc2SCCNC(=O)CS(N)(=O)=O)c1 [107/12]
14,< 0.1,N#Cc1cccc(NC(=NO)c2nonc2SCCNC(=O)CCS(N)(=O)=O)c1 [107/13]
15,< 0.1,NS(=O)(=O)CC(=O)NCCSc1nonc1/C(=N/O)Nc1ccc(F)c(Br)c1 [107/14]
16,< 0.1,NS(=O)(=O)CCC(=O)NCCSc1nonc1C(=NO)Nc1cccc(Cl)c1 [107/15]
17,< 0.1,N#CCC(=O)NCCSc1nonc1/C(=N/O)Nc1ccc(F)c(C(F)F)c1 [107/17]
